{"source": "patent US10238667B2", "about": "“Vitamin D receptor/SMAD genomic circuit gates fibrotic response” (Salk Institute for Biological Studies, priority 2013, dated 2019)", "tested_on": "primary rat HSCs", "experiment": "Microarray expression profiling of TGFβ1 and TGFβ1+1,25(OH)2D3-treated HSCs", "type": "cell-based", "details": "24 h", "description": "VDR Signaling Suppresses TGFβ-induced Pro-Fibrotic Genes. […] Euclidean clustering of both rows and columns using log2 transformed microarray expression data, n=2 per treatment group. […] Data represents the mean±SEM of at least three independent experiments performed in triplicate. Asterisks denote statistically significant differences (Student's unpaired t-test, *p<0.05, **p<0.01). HSCs were isolated from 10-week old male C57BL/6J mice and Wistar rats by in situ pronase, collagenase perfusion and single-step Histogenz gradient as previously reported (Hendriks et al., 1985; Knook et al., 1982). Isolated HSCs were cultured in DMEM (Mediatech) containing 20% FBS (Hyclone) on 6-well plates for 40 hours prior to end-point assays. Total RNA from primary rat or mouse HSCs was isolated using the RNeasy mini kit (Qiagen) according to standard protocols. RNA integrity and quality was assessed using the Agilent Bioanalyzer and prepared for hybridization to Illumina rat or mouse gene expression arrays according to standard Illumina protocols. Feature extraction was performed using the Illumina GenomeStudio software. Normalization and identification of differentially expressed genes from biological duplicates was performed using […] at http://sasquatch.ucsd.edu/vampire/.", "key": {"[1]": {"details": "TGFβ1 1 ng/ml ± 1,25(OH)2D3 100 nM"}}}
{"smiles": "C=C1/C(=C\\C=C2/CCC[C@]3(C)C([C@H](C)CCCC(C)(C)O)CC[C@@H]23)C[C@@H](O)C[C@@H]1O", "note": "(stereo partly drawn) [1,25(OH)2D3, 1α,25 dihydroxyvitamin D3]", "values": [{"measurement": "LOC499078 VitD + TGFbeta AVG signal", "setting": "TGFβ1 1 ng/ml + 1,25(OH)2D3 100 nM, Control 3963.4, TGFβ 9788.1", "result": 2325}, {"measurement": "Glipr1_predict VitD + TGFbeta AVG signal", "setting": "TGFβ1 1 ng/ml + 1,25(OH)2D3 100 nM, Control 3986, TGFβ 9174", "result": 1894}, {"measurement": "Sh3kbp1 VitD + TGFbeta AVG signal", "setting": "TGFβ1 1 ng/ml + 1,25(OH)2D3 100 nM, Control 4057.3, TGFβ 7133.8", "result": 1618}, {"measurement": "Ms4a7_predict VitD + TGFbeta AVG signal", "setting": "TGFβ1 1 ng/ml + 1,25(OH)2D3 100 nM, Control 4402.2, TGFβ 10637", "result": 1708}, {"measurement": "LOC310190 VitD + TGFbeta AVG signal", "setting": "TGFβ1 1 ng/ml + 1,25(OH)2D3 100 nM, Control 4496.5, TGFβ 12465", "result": 2594}, {"measurement": "Itgb2 VitD + TGF β Avg Signal", "setting": "TGFβ1 1 ng/ml + 1,25(OH)2D3 100 nM, Control 4506.5, TGFβ 5580.6", "result": 4858.4}, {"measurement": "Nucb2 VitD + TGFbeta AVG signal", "setting": "TGFβ1 1 ng/ml + 1,25(OH)2D3 100 nM, Control 4712.3, TGFβ 10527", "result": 2733}, {"measurement": "RT1-Ba VitD + TGFbeta AVG signal", "setting": "TGFβ1 1 ng/ml + 1,25(OH)2D3 100 nM, Control 4721.8, TGFβ 13843", "result": 3390}, {"measurement": "LOC312102 VitD + TGFbeta AVG signal", "setting": "TGFβ1 1 ng/ml + 1,25(OH)2D3 100 nM, Control 5658, TGFβ 19362", "result": 4469}, {"measurement": "Ptpro VitD + TGFbeta AVG signal", "setting": "TGFβ1 1 ng/ml + 1,25(OH)2D3 100 nM, Control 5856.6, TGFβ 12798", "result": 2551}, {"measurement": "Dcir3 VitD + TGFbeta AVG signal", "setting": "TGFβ1 1 ng/ml + 1,25(OH)2D3 100 nM, Control 6230.8, TGFβ 11228", "result": 1354}, {"measurement": "Oplah VitD + TGFbeta AVG signal", "setting": "TGFβ1 1 ng/ml + 1,25(OH)2D3 100 nM, Control 6494.5, TGFβ 16466", "result": 1922}, {"measurement": "Itgb1 VitD + TGF β Avg Signal", "setting": "TGFβ1 1 ng/ml + 1,25(OH)2D3 100 nM, Control 8050.9, TGFβ 10104.2", "result": 7987.9}, {"measurement": "Mmp14 VitD + TGF β Avg Signal", "setting": "TGFβ1 1 ng/ml + 1,25(OH)2D3 100 nM, Control 8370.4, TGFβ 15560.3", "result": 14980.5}, {"measurement": "Timp1 VitD + TGF β Avg Signal", "setting": "TGFβ1 1 ng/ml + 1,25(OH)2D3 100 nM, Control 10124.0, TGFβ 13471.4", "result": 9101.3}, {"measurement": "Ctgf VitD + TGF β Avg Signal", "setting": "TGFβ1 1 ng/ml + 1,25(OH)2D3 100 nM, Control 10532.3, TGFβ 20216.0", "result": 9730.1}, {"measurement": "Col1a2 VitD + TGF β Avg Signal", "setting": "TGFβ1 1 ng/ml + 1,25(OH)2D3 100 nM, Control 10691.1, TGFβ 24123.0", "result": 9593.3}, {"measurement": "Ms4a6b VitD + TGFbeta AVG signal", "setting": "TGFβ1 1 ng/ml + 1,25(OH)2D3 100 nM, Control 12345, TGFβ 21779", "result": 5158}, {"measurement": "Ctsc VitD + TGFbeta AVG signal", "setting": "TGFβ1 1 ng/ml + 1,25(OH)2D3 100 nM, Control 16420, TGFβ 32328", "result": 6319}, {"measurement": "Bmp2 TGFb/TGFB + VitD3", "setting": "[1]", "result": "5.3 NM_017178.1 Rattus norvegicus bone"}, {"measurement": "Cacnb3 TGFb/TGFB + VitD3", "setting": "[1]", "result": "6.0 NM_012828.1 Rattus norvegicus calcium channel"}, {"measurement": "Ccl12_predicte TGFb/TGFB + VitD3", "setting": "[1]", "result": "5.5 XM_213425.2 PREDICTED: Rattus norvegicus"}, {"measurement": "Ccr5 TGFb/TGFB + VitD3", "setting": "[1]", "result": "12.9 NM_053960.2 Rattus norvegicus chemokine (C-"}, {"measurement": "Cdh1 TGFb/TGFB + VitD3", "setting": "[1]", "result": "4.4 NM_031334.1 Rattus norvegicus cadherin 1"}, {"measurement": "Chst1_predict TGFb/TGFB + VitD3", "setting": "[1]", "result": "12.7 XM_575178.1 PREDICTED: Rattus norvegicus"}, {"measurement": "Ctsc TGFb/TGFB + VitD3", "setting": "[1]", "result": "5.1 NM_017097.1 Rattus norvegicus cathepsin C"}, {"measurement": "Cysltr1 TGFb/TGFB + VitD3", "setting": "[1]", "result": "4.4 NM_053641.1 Rattus norvegicus cysteinyl"}, {"measurement": "Dcir2 TGFb/TGFB + VitD3", "setting": "[1]", "result": "4.6 XM_579146.1 PREDICTED: Rattus norvegicus"}, {"measurement": "Dcir3 TGFb/TGFB + VitD3", "setting": "[1]", "result": "8.3 XM_579150.1 PREDICTED: Rattus norvegicus"}, {"measurement": "Dsipi TGFb/TGFB + VitD3", "setting": "[1]", "result": "4.0 NM_031345.1 Rattus norvegicus delta sleep"}, {"measurement": "Emr1 TGFb/TGFB + VitD3", "setting": "[1]", "result": "5.9 XM_579174.1 PREDICTED: Rattus norvegicus"}, {"measurement": "Fchsd2_predic TGFb/TGFB + VitD3", "setting": "[1]", "result": "4.9 XM_218965.3 PREDICTED: Rattus norvegicus"}, {"measurement": "Gas7 TGFb/TGFB + VitD3", "setting": "[1]", "result": "4.9 NM_053484.1 Rattus norvegicus growth arrest"}, {"measurement": "Glipr1_predict TGFb/TGFB + VitD3", "setting": "[1]", "result": "4.8 XM_576223.1 PREDICTED: Rattus norvegicus GLI"}, {"measurement": "Hod TGFb/TGFB + VitD3", "setting": "[1]", "result": "5.1 NM_133621.2 Rattus norvegicus homeobox only"}, {"measurement": "LOC304349 TGFb/TGFB + VitD3", "setting": "[1]", "result": "7.1 XM_221990.3 PREDICTED: Rattus norvegicus"}, {"measurement": "LOC305269 TGFb/TGFB + VitD3", "setting": "[1]", "result": "4.0 XM_223309.3 PREDICTED: Rattus norvegicus"}, {"measurement": "LOC310190 TGFb/TGFB + VitD3", "setting": "[1]", "result": "4.8 XM_226886.3 PREDICTED: Rattus norvegicus"}, {"measurement": "LOC312102 TGFb/TGFB + VitD3", "setting": "[1]", "result": "4.3 XM_231461.3 PREDICTED: Rattus norvegicus"}, {"measurement": "LOC361699 TGFb/TGFB + VitD3", "setting": "[1]", "result": "3.8 XM_341982.2 PREDICTED: Rattus norvegicus"}, {"measurement": "LOC366205 TGFb/TGFB + VitD3", "setting": "[1]", "result": "6.6 XM_345441.2 PREDICTED: Rattus norvegicus"}, {"measurement": "LOC366608 TGFb/TGFB + VitD3", "setting": "[1]", "result": "4.4 XM_345665.2 PREDICTED: Rattus norvegicus"}, {"measurement": "LOC497796 TGFb/TGFB + VitD3", "setting": "[1]", "result": "5.1 XM_579296.1 PREDICTED: Rattus norvegicus"}, {"measurement": "LOC498741 TGFb/TGFB + VitD3", "setting": "[1]", "result": "6.1 XM_574019.1 PREDICTED: Rattus norvegicus"}, {"measurement": "LOC498751 TGFb/TGFB + VitD3", "setting": "[1]", "result": "5.1 XM_574030.1 PREDICTED: Rattus norvegicus"}, {"measurement": "LOC499078 TGFb/TGFB + VitD3", "setting": "[1]", "result": "4.2 XM_574362.1 PREDICTED: Rattus norvegicus"}, {"measurement": "LOC499100 TGFb/TGFB + VitD3", "setting": "[1]", "result": "3.9 XM_218456.3 PREDICTED: Rattus norvegicus"}, {"measurement": "LOC499272 TGFb/TGFB + VitD3", "setting": "[1]", "result": "4.4 XM_579937.1 PREDICTED: Rattus norvegicus"}, {"measurement": "LOC499356 TGFb/TGFB + VitD3", "setting": "[1]", "result": "11.0 XM_574669.1 PREDICTED: Rattus norvegicus"}, {"measurement": "LOC501570 TGFb/TGFB + VitD3", "setting": "[1]", "result": "4.6 XM_576974.1 PREDICTED: Rattus norvegicus"}, {"measurement": "LOC502904 TGFb/TGFB + VitD3", "setting": "[1]", "result": "6.7 XM_578406.1 PREDICTED: Rattus norvegicus"}, {"measurement": "LOC502907 TGFb/TGFB + VitD3", "setting": "[1]", "result": "9.6 XM_578409.1 PREDICTED: Rattus norvegicus"}, {"measurement": "Ly49si1 TGFb/TGFB + VitD3", "setting": "[1]", "result": "4.6 XM_579297.1 PREDICTED: Rattus norvegicus"}, {"measurement": "Ly49si2 TGFb/TGFB + VitD3", "setting": "[1]", "result": "4.6 XM_579298.1 PREDICTED: Rattus norvegicus"}, {"measurement": "Ms4a4a_predi TGFb/TGFB + VitD3", "setting": "[1]", "result": "17.7 XM_342027.1 PREDICTED: Rattus norvegicus"}, {"measurement": "Ms4a6a_predi TGFb/TGFB + VitD3", "setting": "[1]", "result": "4.5 XM_215145.3 PREDICTED: Rattus norvegicus"}, {"measurement": "Ms4a6b TGFb/TGFB + VitD3", "setting": "[1]", "result": "4.2 NM_00100697 Rattus norvegicus membrane-"}, {"measurement": "Ms4a7_predict TGFb/TGFB + VitD3", "setting": "[1]", "result": "6.2 XM_215200.2 PREDICTED: Rattus norvegicus"}, {"measurement": "Nucb2 TGFb/TGFB + VitD3", "setting": "[1]", "result": "3.9 NM_021663.2 Rattus norvegicus nucleobindin 2"}, {"measurement": "Oplah TGFb/TGFB + VitD3", "setting": "[1]", "result": "8.6 NM_053904.1 Rattus norvegicus 5-oxoprolinase"}, {"measurement": "Pcsk1 TGFb/TGFB + VitD3", "setting": "[1]", "result": "7.4 NM_017091.1 Rattus norvegicus proprotein"}, {"measurement": "Pirb TGFb/TGFB + VitD3", "setting": "[1]", "result": "5.3 NM_031713.1 Rattus norvegicus paired-Ig-like"}, {"measurement": "Ptprc TGFb/TGFB + VitD3", "setting": "[1]", "result": "4.2 NM_138507.1 Rattus norvegicus protein tyrosine"}, {"measurement": "Ptpro TGFb/TGFB + VitD3", "setting": "[1]", "result": "5.0 NM_017336.1 Rattus norvegicus protein tyrosine"}, {"measurement": "RT1-Ba TGFb/TGFB + VitD3", "setting": "[1]", "result": "4.1 XM_579226.1 PREDICTED: Rattus norvegicus"}, {"measurement": "Sh3kbp1 TGFb/TGFB + VitD3", "setting": "[1]", "result": "4.4 NM_053360.2 Rattus norvegicus SH3-domain"}, {"measurement": "Slamf9_predic TGFb/TGFB + VitD3", "setting": "[1]", "result": "4.2 XM_213932.2 PREDICTED: Rattus norvegicus"}, {"measurement": "Stab1_predict TGFb/TGFB + VitD3", "setting": "[1]", "result": "5.6 XM_214279.3 PREDICTED: Rattus norvegicus"}, {"measurement": "Tmem26_pred TGFb/TGFB + VitD3", "setting": "[1]", "result": "3.8 XM_228108.3 PREDICTED: Rattus norvegicus"}]}
